Data published in US20250114390A1, “MULTI-ACTIVE TABLET IN THE TREATMENT AND CONTROL OF SEVERE CHRONIC PAIN AND METHOD OF PREPARATION” (LABORATORIOS SILANES S.A. DE C.V., priority 2023, published 2025).
Converted amounts (≈) assume the structure as drawn. Where two headings read alike, the source gives them in different places.

Columns and labels:
[1] = cited from earlier work
[2] = cited from earlier work; remark: listed apart in the source
healthy subjects = experiment: Adverse events in the comparative bioavailability clinical trial; settings: single dose
Source text: The study was open, longitudinal, prospective, with a 3×6×3 design, with random assignment, single dose, three treatments, three periods and six sequences under fasting conditions, in a healthy Mexican female and male population with a washout time for drug elimination of one week (07 days) between each period.
Due to the COVID-19 health emergency, the 42 research subjects were divided into two hospitalization groups: Group 1 with 22 research subjects and Group 2 with 20 research subjects. After fasting for at least 10 hours, a blood sample was taken at time 0.00 hours, and a dose of celecoxib/pregabalin/vitamin B, 200 mg/150 mg tablets/vitamin B12 500 μg/vitamin B1 100 mg/vitamin B6 50 mg was administered, in a single dose of the test medicament or the reference medicament as monotherapy (celecoxib 200 mg capsule or pregabalin 150 mg capsule) according to prior randomization, orally with 250 ml of water at room temperature. After administration of the corresponding medicament, another 17 samples were taken at the following times: 0.50, 0.75, 1.00, 1.33, 1.66, 2.00, 2.50, 3.00, 3.50, 4.00, 6.00, 8.00, 10.00, 14.00, 24.00, 36.00- and 48.00-hours post-dose.

Compound: Cc1ccc(-c2cc(C(F)(F)F)nn2-c2ccc(S(N)(=O)=O)cc2)cc1 [Celecoxib]
- Solubility [1]: 3300 µg/mL (≈ 8.65 mM)
- Solubility (biopharmaceutical classification) [1]: low solubility
- Cmax of celecoxib ([2]; Author: Center for Drug Evaluation, 1999): 600.0 ± 900.00 ng/mL
- ABC0-t of celecoxib ([2]; Author: Laboratorios Silanes): 5593.760 ± 2158.606 ng/mL*h
- Cmax of celecoxib ([2]; Author: Laboratorios Silanes): 602.685 ± 301.48 ng/mL
- ABC0-t of celecoxib ([2]; Author: Lilitkarntrakul, P): 5157.12 ± 1499.46 ng/mL*h
- Cmax of celecoxib ([2]; Author: Lilitkarntrakul, P): 686.83 ± 211.35 ng/mL
- ABC0-t of celecoxib ([2]; Author: Paulson, S): 5994.0 ± 2393.0 ng/mL*h
- Cmax of celecoxib ([2]; Author: Paulson, S): 806.0 ± 411.0 ng/mL
- ABC0-t of celecoxib ([2]; Author: Sy-Yeuan J): 7267.48 ± 2077.68 ng/mL*h
- Cmax of celecoxib ([2]; Author: Sy-Yeuan J): 703.86 ± 329.91 ng/mL

Compound: CC(C)C[C@H](CN)CC(=O)O [Pregabalin]
- Adverse events probably related to dosing, total (healthy subjects): 16 events
- Events of dizziness (healthy subjects): 13 events
- Events of headache (healthy subjects): 1 events
- Events of paresthesia (healthy subjects): 1 events
- Events of visual disturbances (healthy subjects): 1 events
- Permeability (biopharmaceutical classification) ([1]; not told): high permeability

Compound: Cc1ncc(CO)c(CO)c1O [Pyridoxine]
- Stability (description) ([1]; air, light): stable in air and slowly decomposes with light
- pKa [1]: 9.4
- Solubility in alcohol ([1]; in words): slightly soluble
- Solubility in diethyl ether ([1]; in words): almost insoluble
- Solubility in water ([1]; in words): Easily soluble

Compound: Cc1ncc(C[n+]2csc(CCO)c2C)c(N)n1 [Thiamine]
- pKa [1]: 15.5
- Solubility in chloroform ([1]; in words): very slightly soluble
- Solubility in diethyl ether ([1]; in words): almost insoluble
- Solubility in ethanol ([1]; in words): slightly soluble
- Solubility in hot water ([1]; in words): Freely soluble
- Solubility in methanol ([1]; in words): slightly soluble
- Solubility in water ([1]; in words): slightly soluble

Compound: Cyanocobalamin
- pH ([1]; 1 g/L at 20° C.): 6.0
- Solubility [1]: 12000 µg/mL
- pKa [1]: 1.82
- Solubility in acetone ([1]; in words): almost insoluble
- Solubility in alcohol ([1]; in words): Soluble
- Solubility in chloroform ([1]; in words): almost insoluble
- Solubility in diethyl ether ([1]; in words): almost insoluble
- Solubility in water ([1]; in words): slightly soluble
